{"source": "patent US11230535B2", "about": "“CFTR regulators and methods of use thereof” (THE REGENTS OF THE UNIVERSITY OF CALIFORNIA, priority 2015, dated 2022)", "molecular_target": "T1, ΔF508-CFTR (Homo sapiens, UniProt P13569, DEL508-508)", "T1 construct": "expressed in transfected cells; host or cells: Fischer rat thyroid (FRT) cells", "T1 sequence (P13569 with tags, fused parts or gaps DEL508-508)": "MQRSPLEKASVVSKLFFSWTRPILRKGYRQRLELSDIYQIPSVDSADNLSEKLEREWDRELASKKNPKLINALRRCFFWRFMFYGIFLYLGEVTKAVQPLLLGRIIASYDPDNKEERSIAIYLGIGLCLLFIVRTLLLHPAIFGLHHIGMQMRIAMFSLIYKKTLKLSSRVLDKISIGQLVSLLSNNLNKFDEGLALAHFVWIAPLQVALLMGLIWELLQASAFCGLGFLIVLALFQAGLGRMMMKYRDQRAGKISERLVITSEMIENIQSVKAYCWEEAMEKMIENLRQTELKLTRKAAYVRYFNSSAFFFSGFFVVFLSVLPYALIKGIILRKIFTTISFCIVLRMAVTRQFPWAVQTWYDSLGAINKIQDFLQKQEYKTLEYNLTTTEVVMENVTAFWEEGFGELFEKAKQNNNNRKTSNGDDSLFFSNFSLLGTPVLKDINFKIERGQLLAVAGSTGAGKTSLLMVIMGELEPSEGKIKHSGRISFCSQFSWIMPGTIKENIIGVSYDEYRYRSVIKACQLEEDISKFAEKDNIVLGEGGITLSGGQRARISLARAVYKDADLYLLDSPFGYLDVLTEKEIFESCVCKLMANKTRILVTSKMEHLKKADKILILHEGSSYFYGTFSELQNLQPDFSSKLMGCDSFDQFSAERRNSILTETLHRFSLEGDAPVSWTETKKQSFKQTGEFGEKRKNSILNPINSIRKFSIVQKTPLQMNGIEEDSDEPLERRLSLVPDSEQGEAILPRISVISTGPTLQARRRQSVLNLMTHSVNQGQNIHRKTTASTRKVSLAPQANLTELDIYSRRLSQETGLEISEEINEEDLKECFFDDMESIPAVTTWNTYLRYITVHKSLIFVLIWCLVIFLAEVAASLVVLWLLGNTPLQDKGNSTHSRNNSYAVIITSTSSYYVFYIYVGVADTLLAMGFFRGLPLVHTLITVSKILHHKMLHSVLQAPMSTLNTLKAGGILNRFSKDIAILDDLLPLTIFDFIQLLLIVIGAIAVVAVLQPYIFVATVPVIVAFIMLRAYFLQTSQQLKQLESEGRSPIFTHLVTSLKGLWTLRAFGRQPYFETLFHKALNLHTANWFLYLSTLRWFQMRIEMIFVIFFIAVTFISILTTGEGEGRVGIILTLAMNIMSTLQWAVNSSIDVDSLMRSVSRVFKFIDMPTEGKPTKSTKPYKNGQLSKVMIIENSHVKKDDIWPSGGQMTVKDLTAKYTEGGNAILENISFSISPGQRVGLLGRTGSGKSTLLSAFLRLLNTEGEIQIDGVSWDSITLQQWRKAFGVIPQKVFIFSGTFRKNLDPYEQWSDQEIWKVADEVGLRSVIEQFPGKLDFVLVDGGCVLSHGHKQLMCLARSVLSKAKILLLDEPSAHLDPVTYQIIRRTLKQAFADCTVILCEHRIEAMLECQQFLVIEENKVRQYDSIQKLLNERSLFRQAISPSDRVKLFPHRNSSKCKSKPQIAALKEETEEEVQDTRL", "assay": "Short-circuit current in FRT cells expressing ΔF508-CFTR after corrector (VX-809)", "format": "cell-based", "settings": "overnight corrector", "description": "FIGS. 9A-9E. Characterization of CFTR activation by CFTRact-J027. Short-circuit current measured in FRT cells expressing human wild-type CFTR (FIG. 9A) and ΔF508-CFTR (FIG. 9C) showing responses to indicated concentrations of forskolin (fsk), CFTRact-J027, and VX-770. The ΔF508-CFTR-expressing FRT cells were corrected with 3 μM VX-809 at 37° C. for 24 h before measurement. CFTRinh-172 (Inh-172, 10 μM) was added where indicated. FIG. 9B. CFTRact-J027 concentration-dependent activation of wild-type CFTR Cl^− current (S.E.; n=3 cultures). FIG. 9D. Short-circuit current in mouse colon showing responses to indicated concentrations of forskolin (fsk), CFTRact-J027, and CFTRinh-172. FIG. 9E. Assay of cAMP concentration in FRT cells measured following 10-min incubation with indicated concentrations of forskolin and 5 μM CFTRact-J027. Positive controls included forskolin (100 nM and 20 μM), and forskolin plus 3-isobutyl-1-methylxanthine (IBMX, 100 μM) (mean±SE, n=4-8).\nThe increase in current at high CFTRact-J027 was further increased by forskolin, which may be a consequence of activation of a basolateral membrane cAMP-sensitive K^+ channel that increases the driving force for apical membrane Cl^− secretion.", "note": "Entries after “also recorded” stand apart in the source; their conditions may differ.", "data": [{"smiles": "Nc1ccc([N+](=O)[O-])cc1-c1nc2ccccc2n(Cc2ccccc2)c1=O", "note": "[CFTRact-J027, 3-(2-amino-5-nitrophenyl)-1-benzylquinoxalin-2(1H)-one]", "values": [{"measurement": "potentiation of ΔF508-CFTR", "result": "substantially less potent than ivacaftor; also recorded: only a weak potentiator"}]}]}
